Key:
Girardi cells = assay: Mitochondrial depolarization inhibition, JC-1 fluorescence ratio, ouabain/KCl-induced depolarization (Example 1); type: cell-based, human; details: 1 mM ouabain + 60 mM KCl, 2 hr
Method: First of all, Girardi cells are seeded on a plate usable for an optical measurement method, and cultured in a normal medium (MEM medium supplemented with additives, such as non-essential amino acid, fetal bovine serum and the like). Then, the medium is changed to a normal medium containing JC-1 to allow incorporation of JC-1 into the cell, the medium is changed to a normal medium containing a test substance, and the cells are cultured. Then, a depolarization-inducing medium is used (normal medium containing ouabain and KCl; in the evaluation method of the present invention, ouabain is used at a concentration of 0.1 μM-3 mM, and KCl is used at a concentration of 20 mM-90 mM). The test substance may be added along with or after addition of a depolarization-inducing medium following incorporation of JC-1 into the cell. After addition of the depolarization-inducing medium, the culture time can be 1-24 hr. Thereafter, the fluorescence of JC-1 monomer and the fluorescence of J-aggregate are measured on a fluorescence plate reader (capable of excitation at around 488-490 nm, which is the excitation wavelength of JC-1, and capable of fluorescence detection around 527 nm, which is the fluorescence wavelength peak of JC-1 monomer and around 590-600 nm, which is the fluorescence wavelength of J-aggregate), and the fluorescence intensity ratio (monomer fluorescence intensity/J-aggregate fluorescence intensity) is calculated.
Girardi cells suspended in a normal medium [(MEM (GIBCO 11095-098) supplemented with 1% non-essential amino acid (MEM Non-Essential Amino Acids Solution 10 mM 100× GIBCO 11140-050), and 10% fetal bovine serum (BIOFLUIDS DIVISION Lot No. 302030))] were seeded to a 96-well clear bottom black plate (MATRIX MT4940) at 200 μL/well and cultured.
JC-1 (Molecular Probes T-3168, 1 mg/mL DMSO solution) was added to a phenol red-free normal medium [MEM (GIBCO 51200-038) supplemented with 1% non-essential amino acid (MEM Non-Essential Amino Acids Solution 10 mM 100× GIBCO 11140-050), 1% L-glutamine (L-Glutamine-200 mM 100×: GIBCO 25030-149) and 10% fetal bovine serum (BIOFLUIDS DIVISION: Lot No. 302030)] at 10 μL/mL, the mixture was stirred with a vortex mixer and centrifuged at 3000 rpm for 1 min and the supernatant was filtered through a syringe filter (0.22 μm, MILLIPORE). The medium in the 96-well plate was removed and the JC-1 solution was dispensed to a cell-seeded well at 50 μL/well. […]
After induction of depolarization, the plate was set on a fluorescence plate reader (TECAN, SpectraFluor) heated to 37° C., and the J-aggregate fluorescence was measured at 595 nm using an excitation wavelength of 485 nm. Then, the monomer fluorescence was measured at 535 nm using an excitation wavelength of 485 nm. […]

Griardi cells [1] = details: JC-1, flow cytometry; cited from earlier work
Griardi cells [2] = details: 3 hr low oxygen with metabolism inhibitor, then 1 hr normal medium; cited from earlier work

For `CC1(C)Oc2ccc(C#N)cc2[C@@H](N2CCCC2=O)[C@@H]1O` [levcromakalim], the “mitochondrial depolarization inhibitory action (fluorescence intensity ratio monomer/J-aggregate)” value (Girardi cells) was “did not prevent mitochondrial depolarization”.
In the case of `CC1=NS(=O)(=O)c2cc(Cl)ccc2N1` [diazoxide], the “mitochondrial depolarization inhibitory action (fluorescence intensity ratio monomer/J-aggregate)” value (Girardi cells) is reported as “mitochondrial depolarization inhibitory action”.
In the case of `N#CC(C#N)=NNc1cccc(Cl)c1` [CCCP], the “mitochondrial membrane potential (red fluorescence intensity of JC-1)” value (Griardi cells [1]) is given as “decreased fluorescence intensity and depolarization of mitochondria were observed”.
For `Nc1ncnc2c1ncn2[C@@H]1O[C@H](CO)[C@@H](O)[C@H]1O` [adenosine], the apoptosis (Griardi cells [2]) is listed as “strongly inhibited apoptosis”.
With `COc1ccc([C@@H]2Sc3ccccc3N(CCN(C)C)C(=O)[C@@H]2OC(C)=O)cc1.Cl` [diltiazem, diltiazem hydrochloride] the “mitochondrial depolarization inhibitory action (fluorescence intensity ratio monomer/J-aggregate)” value (Girardi cells) was “did not prevent mitochondrial depolarization”.
For `CC1(C)Oc2ccc(C#N)cc2[C@H](N(Cc2ncc[nH]2)c2ccc(Cl)cc2)[C@H]1O` [BMS-191095], the “mitochondrial depolarization inhibitory action (fluorescence intensity ratio monomer/J-aggregate)” value (Girardi cells) was “mitochondrial depolarization inhibitory action”.
